Data reported in patent US11738099B2, “Molecular probes and methods of use” (CASE WESTERN RESERVE UNIVERSITY, priority 2014, dated 2023).
Entries after “also recorded” stand apart in the source; their conditions may differ. Bridges are numbered along the chain shown (N, C = ends). Where no end group is shown, it is not given here.

What was measured:
[1] = Relaxivity at 1.5T in water, 37° C.; assay type: physicochemical
Description: Relaxivity is an important parameter for an MR contrast agent. It reflects how the relaxation rate of the surrounding water proton changes as a function of concentration, and it is directly associated with the agent's contrast enhancing capability during imaging. The relaxivity of the 4 contrast agents was tested at 37° C. in water and compared to Gd(HP-DO3A), Gd-DOTA and ZD2-Gd(HP-DO3A) (FIG. 26). […] Compared to Gd(HP-DO3A), Gd-DOTA, the size increase of the targeted contrast agents due to the peptides and PEG spacer could result in an increase of τR,^[42, 43] thus leading to higher relaxivities.

[2] = In vivo transmetallation and urinary excretion; design: species or system mouse; details: 0.1 mmol-Gd/kg
Description: Balb/c mice (Charles River Laboratories, Wilmington, Mass., USA) were randomly divided into groups of ZD2-Gd(HP-DO3A) and ProHance (n=5) and placed in the metabolism cages, 48 hours prior to injection. […] Urine samples were collected at 12 h pre-injection, and then 8, 24, 48, and 72 h post-injection from the metabolic box. The collected urine samples were centrifuged at 4,000 rpm for 15 min. The concentration of Gd(III), Zn(II), Cu(H), and Ca(II) in the supernatant of the urine samples was determined by ICP-OES after appropriate dilutions.

TGFβ induced 4T1 cells = experiment: Binding of Cy5 probes to TGFβ induced 4T1 cells in vitro; assay type: cell-based; details: cell culture
Description: As tumor cells produce EDB-FN to promote its migration, we further validated if Cy5 labeled l-ZD2 (l-ZD2-Cy5) can bind to TGFβ induced 4T1 cells in vitro. […] To explain this, we hypothesize that in this form of cell culture, no clot formation can take action to provide binding sites for CREKA-Cy5. To validate our hypothesis, we further produced a 3D culture system that mimics the “soil” of metastatic tumor. In the 3D culture system, 4T1 cells were cultured in a microenvironment containing TGFβ, collagen, and fibrin. […] In overall, these evidences point to the conclusion that the use of EDB-FN for targeting micrometastasis may be advantageous compared with Fibronectin-Fibrin complexes in that EDB-FN appears earlier than Fibronectin-Fibrin in the pre-metastatic niche.

[3] = system: TGFβ1-induced PC3 cancer cells; experiment: In vitro cellular binding, confocal microscopy; assay type: cell-based, human
Description: PC3 cell line was purchased from American Type Culture Collection (ATCC, Manassas, Va., USA), and maintained in RPMI/10% FBS medium. The cells were transfected with lentivirus to express green fluorescent protein (GFP) at least 48 h prior to harvesting. To induce EMT, PC3 cells were cultured in the presence of TGFβ1 (5 ng/ml) for 5 days. For in vitro binding assay, nuclei of cells were stained with Hoechst 33342 (Life Technologies, Brooklyn, N.Y., USA) 24 h prior to adding 500 nM ZD2-Cy5. Cells were maintained in medium containing ZD2-Cy5 for 24 h and monitored with confocal microscopy. Intense shaking was avoided for live-cell binding study to retain secreted EDB-FN on the glass.

[4] = system: human prostate tumor sections; experiment: Histological staining of human prostate sections
Description: Human prostate sections were acquired from OriGene (Rockville, Md., USA). Antibodies used in this study include mouse monoclonal anti-Fibronectin antibody (BC-1, ab154210, Abcam, Cambridge, UK), Rhodamine-Red-X conjugated goat polyclonal anti-rabbit IgG (H+L) (Jackson Immuno Research Lab. West Grove, Pa., USA), and FITC conjugated goat polyclonal anti-mouse Fc (ab97264, Abcam). Frozen tissue section ([…]) imbedded in OCT was used for immunostaining and peptide staining. Paraffin embedded samples were de-paraffinized and processed with antigen retrieval using general methods. Sections were permeabilized and fixed with cold acetone followed by 0.5% BSA blocking for 1 hr at room temperature. Peptide staining was carried at the concentration of 5 uM. Slides were counter-stained with DAPI and mounted with coverslip using Prolong Gold regent (Invitrogen) before imaging. Stained tissue was imaged on an Olympus FV1000 confocal laser scanning microscope. GFP was observed using […] and the emission wavelength was read from 480 to 495 nm and represented as green. DAPI was observed using 405 nm laser and the emission wavelength was read from 450 to 470 nm and expressed as blue. Cy5.0 was observed using 635 nm laser and the emission wavelength was read from 655 to 755 nm and expressed as red.

[5] = system: PC3-GFP flank tumor xenografts
Description: NIH athymic male nude mice, age 4-5 weeks, were maintained at the Athymic Animal Core Facility at Case Western Reserve University according to the animal protocols approved by the Institutional Animal Care and Use Committee (IACUC). For whole-body fluorescent imaging study, a flank tumor model was constructed. Each mouse was subcutaneously implanted in both flanks with 2×10^6 PC3-GFP cells mixed with an equal volume of in a mixture of PBS (50 μL culture medium and 50 μL PBS). Two to three weeks after inoculation, tumors reached an average size of 0.5 cm in diameter. The mice were used for imaging with Maestro FLEX In vivo Imaging System (Cambridge Research & Instrumentation, Inc. Woburn, Mass., USA) to monitor the targeting effect of ZD2 from 0 to 24 hours. Mice were intravenously injected with ZD2-Cy5 or CERAK-Cy5 (0.3 μmol/kg body weight). After 5 h, the mice were sacrificed and the tumor and various organs were imaged with the Maestro FLEX In vivo Imaging System.

EDB fragment = EDB fragment (Homo sapiens, UniProt P02751); experiment: Peptide ELISA of HRP-conjugated peptides on coated EDB; assay type: binding; details: HRP conjugates
Description: A linear version of ZD2 (CTVRTSADA) SEQ ID NO: 42 was synthesized so that sulfhydryl group on cysteine could be used for conjugation with maleimide-activated […] (Sigma-Aldrich). Conjugation was carried out as instructed in the manual. The product of conjugation, ZD2-HRP, was used for peptide ELISA assay after coating a 96-well plate with purified EDB. 0.5% BSA in PBS was used to block non-specific binding for later steps. 0.39 μM to 50 μM of ZD2-HRP was incubated with coated EDB for an hour followed by extensive washing with TBST (0.1%). ABTS substrate was added subsequently and allowed to react for 30 min before the absorbance of solution in each well were measured at 415 nm. Non-coated wells added with ABTS were used as blank.
Cyclic ZD2 peptide (CTVRTSADC) (SEQ ID NO: 10) was synthesized using standard solid phase peptide chemistry and was characterized by MALDI-TOF mass spectrometry (FIG. 1C). The peptide was then labeled with a fluorescence chromophore cyanine 5 (Cy5) through a short PEG linker (NH2—(CH2CH2O)—CH2CH2COOH) to give a peptide fluorescence probe ZD2-Cy5. The peptide was also conjugated to peroxidase (ZD2-HRP) and the binding affinity of the peptide to EDB fragment was determined using peptide ELISA assay.
Similarly, CERAK-HRP is synthesized as a control.

[6] = system: PC3 prostate tumor xenografts; experiment: In vivo T1-weighted MRI at 7T, PC3 tumors; design: species or system mouse
Description: (§1) All MRI experiments were performed on a horizontal 7T Bruker scanner (Bruker Biospin Co., Billerica, Mass.). Imaging experiments were performed when the tumor size reached 5-8 mm in diameter. ZD2-Gd(HP-DO3A) was administered intravenously at the dose of 0.1 mmol/kg after acquiring pre-contrast images. Post-contrast images were obtained at 10 min interval up to 30 min. The axial slices of mouse at the tumor location were acquired using T1-weighted spin echo sequence with the following parameters: field of view (FOV): 3 cm; slice thickness: 1.2 mm; interslice distance: 1.2 mm; TR: 500 ms, TE: 8.1 ms; flip angle: 90°; average: 2; matrix size: 128×128. Contrast-to-noise ratio (CNR) at each time point was calculated by subtraction of the average signal intensity in the tumor and muscle, divided by the standard deviation of image noise. ProHance® (gadoteridol) was used as a control in the imaging experiments.

[7] = system: LNCaP prostate tumor xenografts; experiment: In vivo T1-weighted MRI at 7T, LNCaP tumors; design: species or system mouse; details: 0.1 mmol/kg i.v., up to 30 min, 7T
Description: as §1

Chain of EDB fragment (P02751 1271-1359 limits assumed): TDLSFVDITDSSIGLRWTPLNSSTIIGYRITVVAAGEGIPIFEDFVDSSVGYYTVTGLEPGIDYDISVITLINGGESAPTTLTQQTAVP

Compound: ZD2-(Gd-DOTA): ZD2 peptide, PEG spacer, p-NCS-Bz-DOTA-GA, Gd complex (TVRTSAD; also: PEG spacer, p-NCS-Bz-DOTA-GA, Gd complex; listed as Homo sapiens)
- r1 [1]: 4.1 mM⁻¹ s⁻¹

Compound: O=C([O-])CN1CCN(CC(=O)[O-])CCN(CC(=O)O)CCN(CC(=O)[O-])CC1.[Gd+3] [Gd-DOTA, reference compound]
- r1 [1]: 2.9 mM⁻¹ s⁻¹

Compound: CNC(=O)CN(CCN(CCN(CC(=O)[O-])CC(=O)NC)CC(=O)[O-])CC(=O)[O-].[Gd+3] [Omniscan, reference compound]
- urine concentration of endogenous metal ions post-injection vs pre-injection [2]: significant increase in Zn(II) concentration

Compound: IGK-(Gd-DOTA): IGK peptide, PEG spacer, p-NCS-Bz-DOTA-GA, Gd complex (IGKTNTL; also: PEG spacer, p-NCS-Bz-DOTA-GA, Gd complex)
- r1 [1]: 4.6 mM⁻¹ s⁻¹

Compound: CREKA-Cy5: Cy5 probe of CREKA peptide, targets fibronectin-fibrin complexes (also: Cy5 conjugate) [reference compound]
- binding to induced 4T1 cells (TGFβ induced 4T1 cells): no binding

Compound: ZD2-Cy5: cyclic ZD2 (CTVRTSADC) labeled with Cy5 through a short PEG linker (CTVRTSADC-OH; disulfide 1-9 (inferred); not fully specified (N-terminus))
- binding to the periphery of PC3 cells ([3]; TGFβ1-induced (post-EMT) PC3 cells, vs untreated cells): substantially more binding; also recorded: strong binding
- binding to PC3 cells ([3]; uninduced cells): non-binding
- staining of normal glands / BPH sections ([4]; 5 uM): unstained
- tumor binding after blocking sections with BC-1 ([4]; competitive staining): inhibited
- staining of human prostate tumor sections ([4]; high Gleason score (GS7, GS9), 5 uM): strong staining; also recorded: strong binding
- accumulation in tumor, whole-body fluorescence imaging ([5]; 1.5 h after intravenous injection): significantly high accumulation
- tumor accumulation, ex vivo Cy5 signal of tumor and organs ([5]; 5 hours after injection): specific accumulation
- tumor to normal (T/N) ratio of Cy5 signal ([5]; maintained for up to 24 hours, compared with CERAK-Cy5): Relatively high
- accumulation in the liver or lung ([5]; mouse, in vivo): Little accumulation

Compound: CERAK-HRP: control peptide CERAK conjugated to HRP (also: conjugated to HRP) [reference compound]
- binding to EDB protein (EDB fragment): no observable binding

Compound: GVK-(Gd-DOTA): GVK peptide, PEG spacer, p-NCS-Bz-DOTA-GA, Gd complex (GVKSYNE; also: PEG spacer, p-NCS-Bz-DOTA-GA, Gd complex)
- r1 [1]: 4.3 mM⁻¹ s⁻¹

Compound: CREKA-Gd(HP-DO3A): fibrin-FN clot targeting contrast agent, CREKA (Cys-Arg-Glu-Lys-Ala) conjugated to Gd(HP-DO3A) (also: conjugated to Gd(HP-DO3A) (Gd complex)) [reference compound]
- signal enhancement in PC3 tumors ([6]; 0.1 mmol/kg i.v., up to 30 min, 7T): significant contrast enhancement in the periphery
- difference in signal enhancement between the PC3 and LNCaP tumors ([6]; mouse, in vivo): no significant difference
- signal enhancement in LNCaP tumors [7]: significant contrast enhancement in the periphery
